Reference: ChEMBL document CHEMBL4196082, “2-Aryl benzimidazoles: Synthesis, In vitro α-amylase inhibitory activity, and molecular docking study” (Eur J Med Chem, 2018)

biological target: T1, Alpha amylase (Homo sapiens, UniProt P0DUB6); assay: Inhibition of alpha-amylase (unknown origin) using starch as substrate preincubated for 10 mins followed by substrate addition measured after 10 mins by dinitrosalicylic acid reagent-based assay
T1 sequence (P0DUB6 whole entry): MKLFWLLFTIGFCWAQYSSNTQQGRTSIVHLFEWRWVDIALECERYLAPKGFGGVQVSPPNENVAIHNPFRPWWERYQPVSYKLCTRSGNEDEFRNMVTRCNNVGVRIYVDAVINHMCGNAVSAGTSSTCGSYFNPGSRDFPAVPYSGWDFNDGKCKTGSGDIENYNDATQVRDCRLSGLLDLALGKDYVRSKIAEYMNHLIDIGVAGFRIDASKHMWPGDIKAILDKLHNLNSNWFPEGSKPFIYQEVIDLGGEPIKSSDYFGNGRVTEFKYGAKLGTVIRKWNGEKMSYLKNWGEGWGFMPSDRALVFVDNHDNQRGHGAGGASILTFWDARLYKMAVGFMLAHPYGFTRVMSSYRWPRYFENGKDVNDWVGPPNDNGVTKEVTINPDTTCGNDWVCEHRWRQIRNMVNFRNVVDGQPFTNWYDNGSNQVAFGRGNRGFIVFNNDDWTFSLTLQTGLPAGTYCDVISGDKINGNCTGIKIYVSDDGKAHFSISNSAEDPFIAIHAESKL

SMILES	IC50 [nM]
Cc1cc2nc(-c3cc(O)ccc3O)[nH]c2cc1C	2990
COc1cc(Br)c(-c2nc3cc(F)ccc3[nH]2)cc1OC	1570
COc1ccc(-c2nc3cc(F)ccc3[nH]2)c(Cl)c1OC	2560
COc1cc(-c2nc3cc(C)c(C)cc3[nH]2)cc(I)c1O	1770
COc1ccc(Br)c(-c2nc3cc(F)ccc3[nH]2)c1O	2170
Oc1ccc(-c2nc3cc(F)ccc3[nH]2)c(O)c1	2980
COc1ccc(-c2nc3cc(F)ccc3[nH]2)c(F)c1	1590
COc1cccc(-c2nc3cc([N+](=O)[O-])ccc3[nH]2)c1Cl	2780
COc1cc(-c2nc3cc(Cl)ccc3[nH]2)cc(OC)c1O	2520
O=[N+]([O-])c1ccc2[nH]c(-c3cc(Br)ccc3F)nc2c1	2310
COc1ccc(-c2nc3cc(Cl)ccc3[nH]2)c(Cl)c1OC	1510
COc1ccc(-c2nc3cc(Cl)ccc3[nH]2)c(F)c1	2740
COc1cccc(-c2nc3ccccc3[nH]2)c1Cl	2740
COc1cc(-c2nc3cc([N+](=O)[O-])ccc3[nH]2)ccc1OC(C)=O	1730
COc1ccc(Br)cc1-c1nc2cc(F)ccc2[nH]1	2600
Oc1ccc(-c2nc3cc(F)ccc3[nH]2)c(O)c1O	2540
Cc1cc2nc(-c3cc(Cl)cc(Br)c3O)[nH]c2cc1C	2920
O=[N+]([O-])c1ccc2[nH]c(-c3cc(Cl)cc(Br)c3O)nc2c1	2870
Oc1c(Br)cc(Cl)cc1-c1nc2ccccc2[nH]1	2850
COc1cc(-c2nc3cc(F)ccc3[nH]2)ccc1OC(C)=O	1680
COc1cc(Br)c(-c2nc3cc(C)c(C)cc3[nH]2)cc1OC	1480
Oc1c(Br)cc(Cl)cc1-c1nc2cc(F)ccc2[nH]1	2860
COc1cc(-c2nc3cc(F)ccc3[nH]2)cc(OC)c1O	2490
COc1cc(-c2nc3cc([N+](=O)[O-])ccc3[nH]2)cc(I)c1O	1720
COc1cc(-c2nc3cc(Cl)ccc3[nH]2)cc(I)c1O	1610
COc1cc(Br)c(-c2nc3cc(Cl)ccc3[nH]2)cc1OC	1730
COc1cccc(-c2nc3cc(C)c(C)cc3[nH]2)c1Cl	2840
COc1cc(-c2nc3cc(Cl)ccc3[nH]2)ccc1OC(C)=O	1680

More lines, now with the values ahead:

IC50 [nM]	SMILES
2480	COc1ccc(Br)c(-c2nc3ccccc3[nH]2)c1O
2780	COc1ccc(-c2nc3cc(C)c(C)cc3[nH]2)c(F)c1
2620	COc1ccc(Br)cc1-c1nc2cc(Cl)ccc2[nH]1
1620	COc1cc(-c2nc3cc(Cl)ccc3[nH]2)cc(OC)c1Br
2290	COc1ccc(Br)c(-c2nc3cc([N+](=O)[O-])ccc3[nH]2)c1O
2300	COc1ccc(-c2nc3cc(C)c(C)cc3[nH]2)c(OC)c1OC
2620	COc1cccc(-c2nc3cc(F)ccc3[nH]2)c1Cl
2210	COc1ccc(Br)c(-c2nc3cc(Cl)ccc3[nH]2)c1O
1870	COc1cc(Br)c(-c2nc3cc([N+](=O)[O-])ccc3[nH]2)cc1OC
2780	COc1cccc(-c2nc3cc(Cl)ccc3[nH]2)c1Cl
1510	COc1cc(Br)c(-c2nc3ccccc3[nH]2)cc1OC
2860	Oc1c(Br)cc(Cl)cc1-c1nc2cc(Cl)ccc2[nH]1
2750	COc1ccc(-c2nc3cc([N+](=O)[O-])ccc3[nH]2)c(F)c1
2870	Oc1c(Cl)cc(Cl)cc1-c1nc2cc(F)ccc2[nH]1
1590	COc1cc(-c2nc3cc(C)c(C)cc3[nH]2)cc(OC)c1Br
2980	Cc1cc2nc(-c3cc(Cl)cc(Cl)c3O)[nH]c2cc1C
2260	COc1ccc(Br)c(-c2nc3cc(C)c(C)cc3[nH]2)c1O
